The subject of data set [1] is GPA33-expressing SW1222 xenografts. As to conditions: anti-GPA33-DOTA-PRIT, 10-50 pmol, 24 hours p.i.; cited from earlier work.
For the next data set, the system named is SW1222 tumor. As to the kind of experiment: In vivo competition study: maximum tumor uptake of pretargeted DOTA-hapten. Also on record: species or system mice. On the procedure:
In addition to studies with tracer doses of radiolabeled Proteus-DOTA, the upper limit for absolute tumor uptake of radiolabeled Proteus-DOTA was determined using in vivo competition studies. Biodistribution experiments were conducted 24 h following dosing of groups of tumor bearing mice with wide mass range of Proteus-DOTA spanning 2 orders of magnitude (˜170-33800 pmol), showing maximum tumor uptake (“Bmax”) of ˜60 pmol DOTA-hapten/gram of SW1222 tumor. […] Based on a maximum tumor uptake of pretargeted Proteus-DOTA of 62 pmol per gram of SW1222 tumor, ˜180 nCi of ^225Ac could be localized per gram of tumor at SA that are currently achieved with quantitative RCY.

The subject of data set [2] is GD2-expressing IMR-32 human neuroblastoma xenografts. The experiment in a line: Anti-GD2-DOTA-PRIT pretargeting biodistribution, ^225Ac- vs ^177Lu-DOTA-Bn. As to conditions: pretargeted with hu3F8-C825 + clearing agent, 24 hours post-injection. It is filed as in vivo, athymic nude mice. On the procedure: Female athymic nude mice bearing subcutaneous GD2-expressing IMR-32 human neuroblastoma xenografts in the right-hand flank were injected intravenously (i.v.) via the lateral tail-vein with three separate reagents: (1) hu3F8-C825 (0.25 mg, 1.19 nmol) [t=−28 hours (h)], followed by (2) 0.1 mg 500 kD-dextran-DOTA-Bn(Y) (0.2 nmol of CA; 146 DOTA-Bn(Y)/mol of dextran, 29 nmol of DOTA-Bn(Y)) [t=−4 h] and (3) an equimolar amount of either ^177Lu- or ^225Ac-DOTA-Bn (50 μCi and 100 μCi of ^177Lu and ^225Ac, respectively, 8-10 pmol) at [t=0 h]. Mice were sacrificed at 24 h post-injection of radiotracer for biodistribution assay of tumor and select normal tissues. The average tumor masses were as follows (presented as average ±SD): 0.77±0.62 g and 0.49±0.28 g for ^177Lu and ^225Ac cohorts, respectively. Activity concentration data are expressed as the mean % ID/g standard error of the mean (SEM). Errors for the tumor-to-tissue ratios are calculated as the geometric mean of the standard errors of the mean. Student's t-test p-values highlighted in bold are considered significant (p<0.05).

Data set [3] in a line: Dynamic PET imaging and ex vivo biodistribution of [^68Ga]Proteus-DOTA in mice bearing NCI-N87 tumors. Set-up: species or system nude mice. An excerpt: Decay-corrected blood and kidney time-activity curves (TAC) are shown for two individual mice. The blood-TAC for each of the animals was separately curve-fitted to a non-linear two phase decay equation. The (i) percent fast, (ii) half life (slow; minutes), (iii) half-life (fast; minutes), and (iv) R^2 values for mouse 1/mouse 2 were: 46/56, 13.2/13.7, 1.4/0.94, and 0.95/0.99, respectively.
PET Imaging and Biodistribution Studies with […]. […] Nude mice bearing HER2-expressing NCI-N87 human gastric carcinoma subcutaneous xenografts (n=4) were injected with 113-140 μCi ([…]) [^68Ga]Proteus-DOTA and imaged with dynamic positron-emission imaging for […] post-injection (p.i.) (n=2), or with static imaging at 1 h p.i. (n=4). All animals were then sacrificed at 2 hours post injection for ex vivo biodistribution analysis. The list-mode data was histogrammed using the following protocol: 12×10 seconds, 6×30 seconds, 5×60 seconds, 4×300 seconds, 30 min, resulting in […]. Regions-of-interest were drawn around heart (for blood as cardiac outflow) and kidney to determine activity concentrations (as % ID/g).

The target of data set [4] is anti-DOTA-hapten antibody single chain variable fragment C825. The note with it: mean ±SD, read-out: Kd (equilibrium dissociation constant) of C825, cited from earlier work.
Data set [5] is described as follows: Blood half-life and biodistribution of [^111In]Proteus-DOTA in tumor-free nude mice. It is filed as in vivo, athymic nu/nu female mice. How it is done: The blood half-life of surrogate [^111In] Proteus-DOTA was determined. Dotted line indicates nonlinear two phase decay analysis used to calculate half-life (R^2=0.913). Data is presented as mean ±SD.
(n=5 mice; given i.v.) in tumor-free healthy athymic nu/nu female mice.
Preparation of [^111In]Proteus-DOTA. Using similar radiochemical methods, [^111In]Proteus-DOTA was prepared from [^111In]indium chloride (Nuclear Diagnostic Products, Inc., Rockaway, N.J.; 249 MBq [6.73 mCi]) and 150 μL of 10 mg/mL Proteus-DOTA (1.5 mg; 1.11 μmoles). The [^111In]Proteus-DOTA yield was >98% and the final Specific Activity was 162.8 GBq/g [4.4 Ci/g] or 2.28 E5 GBq/mol [6160 Ci/mol]. This preparation was used for pharmacokinetic studies. Prior to administration into mice, the [^111In]Proteus-DOTA was purified using a Strata™-X cartridge (33 μm Polymeric Reversed Phase C-18 30 mg/l mL #8B-S100-TAK, Phenomenex® Inc., Torrance, Calif. USA) as described for [^68Ga]Proteus-DOTA and the radiochemical purity was verified to be >98% either using an in vitro binding assay with excess BsAb or by analytical reverse-phase HPLC coupled with radiodetection.
A biodistribution assay conducted at 240 min p.i.

[6] abbreviates: biphasic, nonlinear two phase decay, R^2=0.913.

“And” between values parts separate entries of the source, which are not always exact repeats. Identical values can stand only once. Like-named read-outs stand apart in the source and are kept apart here.

Consider six compounds from patent US11565005B2, “Dota-hapten compositions for anti-dota/anti-tumor antigen bispecific antibody pretargeted radioimmunotherapy” (MEMORIAL SLOAN KETTERING CANCER CENTER, priority 2017, dated 2023).

`Nc1ccc(CC2CN(CC(=O)[O-])CCN(CC(=O)[O-])CCN(CC(=O)[O-])CCN2CC(=O)[O-])cc1.[86Y+3]` (stereo not drawn) [^86Y-DOTA-Bn]: the mean tumor uptake in data set [1] is about 8 % ID/g.

Turning to `O=C([O-])CN1CCN(CC(=O)[O-])CCN(CC(=O)NCCOCCOCCOCCOCCNC(=S)Nc2ccc(CC3CN(CC(=O)[O-])CCN(CC(=O)[O-])CCN(CC(=O)[O-])CCN3CC(=O)[O-])cc2)CCN(CC(=O)[O-])CC1.[Lu+3]` (stereo not drawn) [Proteus-DOTA], the “^225Ac that could be localized per gram of tumor” value in the data set with SW1222 tumor (based on 62 pmol per gram at currently achieved SA) was about 180 nCi. In the data set with SW1222 tumor (pretargeted, 24 h after dosing, ~170-33800 pmol), the “maximum tumor uptake ("Bmax")” value is ~60 pmol DOTA-hapten/gram of SW1222 tumor and 62 pmol DOTA-hapten/gram of SW1222 tumor.

`Nc1ccc(CC2CN(CC(=O)[O-])CCN(CC(=O)[O-])CCN(CC(=O)[O-])CCN2CC(=O)[O-])cc1.[177Lu+3]` (stereo not drawn) [^177Lu-DOTA-Bn]: in data set [2], the Blood uptake stood at 0.49±0.09 % ID/g and the kidney uptake amounted to 0.83±0.10 % ID/g. For the same compound, the tumor uptake in data set [2] (IMR-32 xenograft, n=5) came out at 10.29±2.87 % ID/g. The maximum tumor uptake in the data set with SW1222 tumor (pretargeted, same system, i.v. administered dose of 600 pmol) is about 60 pmol/g. Besides, the mean tumor uptake in data set [1] is given as about 8 % ID/g.

Regarding `O=C([O-])CN1CCN(CC(=O)[O-])CCN(CC(=O)NCCOCCOCCOCCOCCNC(=S)Nc2ccc(CC3CN(CC(=O)[O-])CCN(CC(=O)[O-])CCN(CC(=O)[O-])CCN3CC(=O)[O-])cc2)CCN(CC(=O)[O-])CC1.[68Ga+3].[Lu+3]` (stereo not drawn) [[^68Ga]Proteus-DOTA], in data set [3] (2 h p.i., n = 4), the Blood activity concentration is recorded as 2.29 ± 0.31 % ID/g, the Bone activity concentration worked out at 0.39 ± 0.07 % ID/g, the Heart activity concentration is given as 0.75 ± 0.10 % ID/g and the Kidneys activity concentration is reported as 1.53 ± 0.50 % ID/g. Also, in data set [3] (2 h p.i., n = 4), the “Large Intestine activity concentration” value is reported as 0.44 ± 0.10 % ID/g, the Liver activity concentration amounted to 1.19 ± 0.08 % ID/g, the Lungs activity concentration was 1.00 ± 0.13 % ID/g and the Muscle activity concentration was determined as 0.17 ± 0.03 % ID/g. Besides, in data set [3] (2 h p.i., n = 4), the “Small Intestine activity concentration” value is given as 0.59 ± 0.21 % ID/g, the Spleen activity concentration amounted to 0.56 ± 0.13 % ID/g and the Stomach activity concentration amounted to 0.19 ± 0.05 % ID/g. For the same compound, the Tumor activity concentration in data set [3] (NCI-N87 tumor, 2 h p.i., n = 4) is recorded as 0.65 ± 0.08 % ID/g. For the same compound, in data set [3] (mouse 1, two phase decay fit), the “blood half life (slow)” value worked out at 13.2 min; the “blood half-life (fast)” value came out at 1.4 min; the “blood time-activity curve, percent fast” value is on record as 46. In addition, in data set [3] (mouse 2, two phase decay fit), the “blood half life (slow)” value is 13.7 min; the “blood half-life (fast)” value was 0.94 min; the “blood time-activity curve, percent fast” value is 56.

As a reminder, the Kd is the free concentration of one partner at which half of the binding sites on the other are occupied at equilibrium, for simple one-to-one binding. As for `Nc1ccc(CC2CN(CC(=O)[O-])CCN(CC(=O)O)CCN(CC(=O)[O-])CCN2CC(=O)[O-])cc1.[Lu+3]` (stereo not drawn) [DOTA-Bn complex of Lu, S-2-(4-aminobenzyl)-1,4,7,10-tetraazacyclododecane tetraacetic acid chelate], the results for the dissociation constant Kd in data set [4] (listed as benzyl-DOTA (Lu) hapten) and in data set [4] were 10 pM and 10.8 ± 2.5 pM, respectively.

With `O=C([O-])CN1CCN(CC(=O)[O-])CCN(CC(=O)NCCOCCOCCOCCOCCNC(=S)Nc2ccc(CC3CN(CC(=O)[O-])CCN(CC(=O)[O-])CCN(CC(=O)[O-])CCN3CC(=O)[O-])cc2)CCN(CC(=O)[O-])CC1.[111In+3].[Lu+3]` (stereo not drawn) [[^111In]Proteus-DOTA], in data set [5] (240 min p.i., i.v., n=5, mean ±SD), the “kidney retention (percent injected activity per gram of tissue)” value turned out to be 0.96±0.25 % IA/g. Besides, the “remaining ^111In-activity in carcass after tissue dissection” value in data set [5] (240 min p.i., n=5, mean ±SD) was 0.952±0.162 % ID. The “share of alpha phase of blood clearance” value in data set [5] (biphasic, nonlinear two phase decay) is recorded as 87.7%. In data set [5] (setting [6]), the “blood half-life (alpha)” value worked out at 7.49 min and the “blood half-life (beta)” value was 24.8 min.
